# Reference: patent US20090298045A1, “Method For Selectively Expanding, Selecting And Enriching Stem/Progenitor Cell Populations” (Tel Hashomer-Medical Research, Infrastructure And Services …, priority 2004, published 2009)
# How the values were obtained:
# Type in all cases: cell-based, human
# UCB-derived CD133+ cells = test: Ex vivo expansion of purified UCB-derived CD133+ cells with cytokines, CD133+ cell fraction by flow cytometry; settings: for CD133+ cell population with cytostatic agent: colchicine 2.5 ng/ml, two weeks expansion; for Fold enrichment (CD133+): with vs without colchicine 2.5 ng/ml, two weeks
# Procedure: Cells were obtained from human umbilical cord blood (UCB) after normal fall-term delivery. The cells were layered on a Ficoll-Hypaque gradient (1.077 g/ml Sigma), and centrifuged at 500 g for 30 minutes. The mononuclear cells in the interface layer were collected and washed three times in phosphate-buffered saline (PBS; Biological Industries) containing 0.5% Bovine serum albumin (BSA). To purify the CD133^+ cells, the mononuclear cell fraction was subjected to two cycles of immunomagnetic bead separation using a MiniMACS CD133 progenitor cell isolation kit (Miltenyi Biotec,), according to the manufacturer's recommendations.
# (§1) Purified CD133^+ cells were cultured in 24-well culture plate at densities of 2-4×10^4 cells in alpha-MEM medium (Biological Industries) supplemented with 10% fetal calf serum (Biological Industries) and the following human recombinant cytokines (Pepro Tech, Inc., Rocky Hill, N.J., USA): Trombopoietin, interleukin-6, FLT-3 ligand and Stem Cell Factor, at final concentration of 50 ng/ml each as well as interleukin-3 and IL2 at 20 ng/ml, in the absence or presence of colchicine in a concentration scale as indicated. Cells were expanded at 37° C. in a humidified atmosphere of 5% CO2 in air.
# (§2) Cultures were depopulated twice a week and a fresh medium in which growth factors and colchicine were added. At various time points, cells were counted after staining with trypan blue and harvested cells were used for enumeration of CD133^+ cells following immunophenotype analysis.
# (§3) The cells were washed with a PBS solution containing 1% BSA and stained (at 4° C. for 30 min) with fluorescein isothiocyanate (FITC)- or phycoerythrin (PE)-conjugated antibodies that are specifically described in the next sections. Cells were washed in the abovementioned buffer and analyzed by flow cytometer (Becman coulter). Cells were passed at a rate of up to 1000 cells/second, using a 488-nm argon laser beam as the light source for excitation.
# (§4) The percentage of CD133^+ cell fraction from total cells was determined by flow cytometry using. PE-anti-CD133^+ antibody (Miltenyi Biotec). Fold enrichment was calculated by dividing the CD133^+ cell percentage of culture growing with cytostatic agent by the CD133^+ cell percentage of culture growing without cytostatic agent. Since cultures were depopulated twice a week, the culture volume was calculated by multiplying the actual volume with the number of passages. Fold expansion was calculated by dividing the CD133^+ cell content of the culture by the initial number of cultured CD133^+ cells.
# [1] = tested on: CD34+CD38- early stem cell sub-population of UCB derived CD133+ cells; test: Determination of CD34+CD38- early stem cell subset in cultured CD133+ cells by flow cytometry; settings: for CD34+38- cell population with cytostatic agent: colchicine 2.5 ng/ml, one week expansion; for Fold enrichment (CD34+38-): with vs without colchicine 2.5 ng/ml, one week
# Procedure: as §1, §3
# The percentages of early stem cell subsets were determined from the purified fresh and/or cultured CD133^+ cell fraction. Cells were dually stained with PE anti-CD34 and FITC anti-CD38 (DAKO) for determination of CD34^+ CD38^− cells by flow cytometry analyses with PE anti-CD133^+ antibody (Miltenyi Biotec).
# [2] = tested on: Fresh, enriched CD133+ stem cells; test: Cell counts and fold expansion of CD133+ stem cells after ex-vivo expansion; settings: colchicine 2.5 ng/ml; for Fold expansion of CD133+ cells: 2 weeks vs T0
# Procedure: as §1, §2, §4
# [3] = Exp. 1, T0 0.4 × 10^3 CD133+ cells
# [4] = Exp. 2, T0 0.2 × 10^3 CD133+ cells
# [5] = Exp. 3, T0 0.4 × 10^3 CD133+ cells
smiles,measurement,setting,value
COc1cc2c(c(OC)c1OC)-c1ccc(OC)c(=O)cc1[C@@H](NC(C)=O)CC2 [colchicine],optimal concentration in which the highest CD133+ cells enrichment was achieved,"UCB-derived CD133+ cells; 2 weeks expansion, three independent experiments, FIG. 3",2.5 ng/mL
same,CD133+ cell population with cytostatic agent,UCB-derived CD133+ cells; Donor # 1 (first line),4%
same,Fold enrichment (CD133+),UCB-derived CD133+ cells; Donor # 1 (first line),4
same,CD133+ cell population with cytostatic agent,UCB-derived CD133+ cells; Donor # 1,7%
same,Fold enrichment (CD133+),UCB-derived CD133+ cells; Donor # 1,7
same,CD133+ cell population with cytostatic agent,UCB-derived CD133+ cells; Donor # 3,15%
same,Fold enrichment (CD133+),UCB-derived CD133+ cells; Donor # 3,2.5
same,CD133+ cell population with cytostatic agent,UCB-derived CD133+ cells; Mean ± SD of three donors,8.7 ± 5.7%
same,Fold enrichment (CD133+),UCB-derived CD133+ cells; Mean ± SD of three donors,4.5 ± 2.3
same,enrichment of UCB-derived CD133+ cell-fraction (in words),"UCB-derived CD133+ cells; concentration scale, 2 weeks expansion, FIG. 3",dose-dependent enrichment
same,"percentage of CD34+CD38- sub-population, treated vs un-treated cultures (in words)",[1]; 1 week in culture,increase in the percentage
same,CD34+38- cell population with cytostatic agent,[1]; Donor # 3,15%
same,Fold enrichment (CD34+38-),[1]; Donor # 3,1.7
same,CD34+38- cell population with cytostatic agent,[1]; Donor # 4,5%
same,Fold enrichment (CD34+38-),[1]; Donor # 4,10
same,"CD133+ cells, T(2 weeks), with colchicine",[2]; [3],5.4 × 10^3
same,"Total cells, T(2 weeks), with colchicine",[2]; [3],135 × 10^3
same,Fold expansion of CD133+ cells,[2]; Exp. 1,(X 13.5)
same,"CD133+ cells, T(2 weeks), with colchicine",[2]; [4],4.7 × 10^3
same,"Total cells, T(2 weeks), with colchicine",[2]; [4],68 × 10^3
same,Fold expansion of CD133+ cells,[2]; Exp. 2,(X 23.5)
same,"CD133+ cells, T(2 weeks), with colchicine",[2]; [5],4.1 × 10^3
same,"Total cells, T(2 weeks), with colchicine",[2]; [5],27 × 10^3
same,Fold expansion of CD133+ cells,[2]; Exp. 3,(X 10.2)
